From ChEMBL document CHEMBL4725222, “Advances in the Development of Phosphodiesterase-4 Inhibitors” (J Med Chem, 2020) come the findings set out here.

The target in test [1] is High affinity 3',5'-cyclic-AMP phosphodiesterase 7A (Homo sapiens, UniProt Q13946). As to the kind of experiment: Inhibition of human PDE7A at 2 uM relative to control.
Test [2] deals with T1, 3',5'-cyclic-AMP phosphodiesterase 4B (Homo sapiens, UniProt Q07343). As to the kind of experiment: Inhibition of PDE4B (unknown origin) at 2 uM relative to control.
T1 sequence (Q07343 whole entry): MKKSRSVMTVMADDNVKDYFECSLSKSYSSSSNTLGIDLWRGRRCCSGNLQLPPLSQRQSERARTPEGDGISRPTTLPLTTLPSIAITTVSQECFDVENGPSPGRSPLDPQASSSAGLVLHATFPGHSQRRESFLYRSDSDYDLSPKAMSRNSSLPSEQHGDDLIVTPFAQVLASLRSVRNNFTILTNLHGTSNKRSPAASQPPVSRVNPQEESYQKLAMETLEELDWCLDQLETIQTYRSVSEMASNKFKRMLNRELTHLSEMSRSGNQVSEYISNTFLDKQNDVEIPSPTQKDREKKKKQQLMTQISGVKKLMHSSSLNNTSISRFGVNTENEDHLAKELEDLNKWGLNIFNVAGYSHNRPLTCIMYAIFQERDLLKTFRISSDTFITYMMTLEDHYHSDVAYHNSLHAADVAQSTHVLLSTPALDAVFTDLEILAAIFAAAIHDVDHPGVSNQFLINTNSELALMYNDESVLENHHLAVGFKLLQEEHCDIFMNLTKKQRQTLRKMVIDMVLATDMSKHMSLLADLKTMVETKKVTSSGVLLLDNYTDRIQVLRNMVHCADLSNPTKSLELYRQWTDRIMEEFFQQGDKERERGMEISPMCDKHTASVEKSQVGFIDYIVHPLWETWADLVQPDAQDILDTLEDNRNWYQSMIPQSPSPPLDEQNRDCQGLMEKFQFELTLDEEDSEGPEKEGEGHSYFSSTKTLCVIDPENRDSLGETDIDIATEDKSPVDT
In test [3] the target is T2, 3',5'-cyclic-AMP phosphodiesterase 4D (Homo sapiens, UniProt Q08499). Description: Inhibition of PDE4D (unknown origin) at 2 uM relative to control.
T2 sequence (Q08499 whole entry): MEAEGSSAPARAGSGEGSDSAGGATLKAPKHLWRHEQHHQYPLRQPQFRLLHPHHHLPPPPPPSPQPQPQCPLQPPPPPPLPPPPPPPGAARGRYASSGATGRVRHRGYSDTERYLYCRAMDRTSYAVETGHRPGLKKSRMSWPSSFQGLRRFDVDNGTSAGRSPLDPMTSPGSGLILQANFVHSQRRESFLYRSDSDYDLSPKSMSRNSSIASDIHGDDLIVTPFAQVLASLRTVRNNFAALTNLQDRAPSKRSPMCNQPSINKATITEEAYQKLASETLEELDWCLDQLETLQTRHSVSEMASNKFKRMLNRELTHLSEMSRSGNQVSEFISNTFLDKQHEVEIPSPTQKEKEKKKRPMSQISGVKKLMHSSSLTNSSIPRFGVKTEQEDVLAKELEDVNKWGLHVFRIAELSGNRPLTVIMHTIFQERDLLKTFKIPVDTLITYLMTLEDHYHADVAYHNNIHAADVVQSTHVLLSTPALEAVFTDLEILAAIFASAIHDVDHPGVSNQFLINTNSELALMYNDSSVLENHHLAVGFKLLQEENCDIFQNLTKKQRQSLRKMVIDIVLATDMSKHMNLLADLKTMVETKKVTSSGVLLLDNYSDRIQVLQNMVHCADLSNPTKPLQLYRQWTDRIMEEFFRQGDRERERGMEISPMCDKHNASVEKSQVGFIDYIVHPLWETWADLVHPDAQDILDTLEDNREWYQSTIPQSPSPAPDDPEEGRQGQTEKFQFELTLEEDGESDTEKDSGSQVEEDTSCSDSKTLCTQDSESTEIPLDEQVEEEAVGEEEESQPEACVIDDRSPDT
The target of test [4] is 3',5'-cyclic-AMP phosphodiesterase 4A (Homo sapiens, UniProt P27815). Description: Inhibition of PDE4A (unknown origin) at 2 uM relative to control.
3',5'-cyclic-AMP phosphodiesterase 4A, sequence (P27815 whole entry): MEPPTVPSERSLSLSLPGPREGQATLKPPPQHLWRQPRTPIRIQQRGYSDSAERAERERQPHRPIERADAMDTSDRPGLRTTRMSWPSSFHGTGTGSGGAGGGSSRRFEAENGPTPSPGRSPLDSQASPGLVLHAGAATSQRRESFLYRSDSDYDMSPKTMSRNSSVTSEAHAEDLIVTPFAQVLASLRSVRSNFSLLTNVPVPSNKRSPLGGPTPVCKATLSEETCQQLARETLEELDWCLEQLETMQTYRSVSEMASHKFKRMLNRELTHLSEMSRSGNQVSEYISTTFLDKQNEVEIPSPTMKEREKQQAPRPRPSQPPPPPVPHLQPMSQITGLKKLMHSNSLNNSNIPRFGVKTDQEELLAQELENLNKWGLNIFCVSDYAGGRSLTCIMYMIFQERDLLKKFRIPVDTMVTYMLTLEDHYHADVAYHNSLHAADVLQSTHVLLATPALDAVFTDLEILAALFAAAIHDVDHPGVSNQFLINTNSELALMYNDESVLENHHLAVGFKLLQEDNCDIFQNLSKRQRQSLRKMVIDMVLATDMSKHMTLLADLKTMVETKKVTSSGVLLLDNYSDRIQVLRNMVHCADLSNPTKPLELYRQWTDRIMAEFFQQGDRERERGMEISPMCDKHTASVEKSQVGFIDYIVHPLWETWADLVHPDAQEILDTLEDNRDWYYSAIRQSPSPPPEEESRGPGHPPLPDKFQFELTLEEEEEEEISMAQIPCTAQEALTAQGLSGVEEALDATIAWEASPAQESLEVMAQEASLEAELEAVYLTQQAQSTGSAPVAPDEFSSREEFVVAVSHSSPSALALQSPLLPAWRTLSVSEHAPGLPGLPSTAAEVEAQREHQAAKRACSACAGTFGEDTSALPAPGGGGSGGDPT
Test [5] addresses T3, Phosphodiesterase 4 (Homo sapiens, UniProt P27815+Q08499+Q07343+Q08493). Description: Inhibition of PDE4 (unknown origin). The format is protein assay.
Test [6] addresses 3',5'-cyclic-AMP phosphodiesterase 4C (Homo sapiens, UniProt Q08493). Description: Inhibition of N-terminal GST tagged full length human PDE4C1 expressed in baculovirus infected Sf9 cell expression system using cAMP as substrate incubated for 60 mins by time-resolved fluorescence competitive immunoassay.
The target of test [7] is T1, 3',5'-cyclic-AMP phosphodiesterase 4B. As to the kind of experiment: Inhibition of N-terminal GST tagged full length human PDE4B2 expressed in baculovirus infected Sf9 cell expression system using cAMP as substrate incubated for 60 mins by time-resolved fluorescence competitive immunoassay.
Test [8] addresses T2, 3',5'-cyclic-AMP phosphodiesterase 4D. Description: Inhibition of PDE4D3 (unknown origin).
The target in test [9] is T3, Phosphodiesterase 4. Description: Inhibition of PDE4 in human U937 cell lysate using cAMP as substrate by LANCE assay. The class given is subcellular. The following applies: u-937. A general note: TR-FRET usually uses a lanthanide donor and a delayed reading to cut background.
Test [10] can be described thus: Inhibition of PDE4B2B (152 to 528 residues) (unknown origin) by liquid scintillation counting method. Further details: species or system Homo sapiens.
For test [11], the target named is T1, 3',5'-cyclic-AMP phosphodiesterase 4B. As to the kind of experiment: Inhibition of recombinant human PDE4B2 using cAMP as substrate preincubated for 15 mins followed by substrate addition and measured after 60 mins by Alphascreen assay. For orientation: Bead proximity is the source of the signal in Alpha formats.
A short description of test [12]: Antiinflammatory activity in human nasal polyp cells assessed as reduction in TNFalpha release incubated for 30 mins followed by anti-IgE stimulation and measured after 18 hrs by ELISA. The class given is functional, cell-based. The following applies: Nasal polyp cell. A general note: ELISA stands for enzyme-linked immunosorbent assay.
For test [13], the target named is T3, Phosphodiesterase 4. Description: Inhibition of cytosolic PDE4 in human PMNL using [3H]cAMP as substrate by liquid scintillation counting method.
The target of test [14] is T1, 3',5'-cyclic-AMP phosphodiesterase 4B. Description: Inhibition of recombinant human PDE4B2 preincubated for 30 mins followed by [3H]cyclic AMP addition and measured after 20 mins by radiometric assay.
The target is the same in test [15]. As to the kind of experiment: Inhibition of recombinant N-terminal GST-tagged full length human PDE4B1 expressed in baculovirus infected Sf9 cells […] as substrate by HPLC-MS method.
Test [16] addresses T2, 3',5'-cyclic-AMP phosphodiesterase 4D. As to the kind of experiment: Inhibition of PDE4D (unknown origin).
Test [17] can be described thus: Inhibition of bovine aorta cytosolic PDE4 using cyclic AMP as substrate by liquid scintillation counting. Further details: species or system Bos taurus.

3',5'-cyclic-AMP phosphodiesterase 4C, sequence (Q08493 whole entry): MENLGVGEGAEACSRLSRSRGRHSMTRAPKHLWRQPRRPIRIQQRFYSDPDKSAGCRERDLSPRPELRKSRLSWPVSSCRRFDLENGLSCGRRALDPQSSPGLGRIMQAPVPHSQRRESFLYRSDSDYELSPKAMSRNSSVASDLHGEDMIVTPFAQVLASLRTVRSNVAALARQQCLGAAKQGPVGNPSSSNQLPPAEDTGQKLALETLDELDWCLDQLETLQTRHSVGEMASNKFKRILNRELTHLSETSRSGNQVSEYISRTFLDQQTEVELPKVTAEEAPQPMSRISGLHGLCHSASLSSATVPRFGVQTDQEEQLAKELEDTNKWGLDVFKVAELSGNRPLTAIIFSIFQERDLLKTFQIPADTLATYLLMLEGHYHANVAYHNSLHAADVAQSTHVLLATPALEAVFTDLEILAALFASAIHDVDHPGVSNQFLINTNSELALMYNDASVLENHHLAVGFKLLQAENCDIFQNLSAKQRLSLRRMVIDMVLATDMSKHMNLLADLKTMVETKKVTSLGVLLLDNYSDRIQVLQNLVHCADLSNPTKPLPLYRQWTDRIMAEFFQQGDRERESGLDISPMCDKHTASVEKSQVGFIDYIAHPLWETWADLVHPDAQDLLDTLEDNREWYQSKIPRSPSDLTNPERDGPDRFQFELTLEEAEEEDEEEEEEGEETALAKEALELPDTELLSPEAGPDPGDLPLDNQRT
High affinity 3',5'-cyclic-AMP phosphodiesterase 7A, sequence (Q13946 whole entry): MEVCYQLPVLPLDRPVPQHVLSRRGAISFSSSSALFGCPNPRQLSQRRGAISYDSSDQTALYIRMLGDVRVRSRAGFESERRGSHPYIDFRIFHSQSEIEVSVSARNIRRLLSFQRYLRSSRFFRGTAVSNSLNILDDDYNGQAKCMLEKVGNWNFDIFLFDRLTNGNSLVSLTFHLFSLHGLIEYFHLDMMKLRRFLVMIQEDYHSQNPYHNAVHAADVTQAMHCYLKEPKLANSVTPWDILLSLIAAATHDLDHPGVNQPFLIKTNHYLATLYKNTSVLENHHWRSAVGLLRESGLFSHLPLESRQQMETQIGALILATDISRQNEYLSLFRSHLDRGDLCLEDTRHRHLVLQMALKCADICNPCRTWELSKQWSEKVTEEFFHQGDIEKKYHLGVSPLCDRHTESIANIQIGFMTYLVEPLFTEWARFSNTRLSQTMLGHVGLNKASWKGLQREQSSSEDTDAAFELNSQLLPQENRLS

For orientation: inhibition means how much of the control response was suppressed. Higher therefore signals a response far below the control. `Cc1c(C(=O)Nc2ccc(F)cc2F)sc2ncnc(N3CCN(C)CC3)c12`: the inhibition in [1] is 98%; in test [2] it was 64%; in test [3], 64%; in test [4], 64%. The term IC50 denotes the concentration needed to halve the response being measured. As to `O=C(Nc1c(Cl)c[n+]([O-])cc1Cl)c1ccc(OC(F)F)c2oc3ccncc3c12`, the IC50 against Phosphodiesterase 4 [5] came out at 3 nM. Regarding `CCOc1cc([C@H](CS(C)(=O)=O)N2C(=O)c3cccc(NC(=O)OCCOCCOCCOCCOCCOCCOCCOC)c3C2=O)ccc1OC`, the IC50 in test [6] and in [7] was 3 nM each time. For `COc1ccc([C@H]2CNC(=O)[C@H](Cc3cccc(C)c3)C2)cc1OC1CCCC1` [HT-0712], inhibition in test [8] was half-maximal at 150 nM (IC50). `CS(=O)(=O)Nc1ccc(C(=O)O[C@@H](Cc2c(Cl)c[n+]([O-])cc2Cl)c2ccc(OC(F)F)c(OCC3CC3)c2)cc1OCC1CC1` yielded an IC50 against Phosphodiesterase 4 [9] of 0.026 nM. On to `COc1ccc(C(Cc2c(Cl)cncc2Cl)OC(=O)c2ccc(OC(F)F)c(OCC3CC3)c2)cc1OC` (stereo not given), for which the IC50 on Phosphodiesterase 4 [5] is 0.2 nM. `CCOc1cc([C@H](CS(C)(=O)=O)N2C(=O)c3cccc(NC(=O)OCCOCCOCCOCCOC)c3C2=O)ccc1OC`: the IC50 in [6] and in test [7] was 3 nM throughout. In test [8], `CCOC(=O)c1cnc2c(cnn2CC)c1NN=C(C)C` [ETAZOLATE] displayed an IC50 of 390 nM.

In test [10], `CC(C)CC(=O)c1ccc(OC(F)F)c(OC2CCOC2)c1` (stereo not given) registered an IC50 of 20 nM. In the case of `CCOc1cc([C@H](CS(C)(=O)=O)N2C(=O)c3cccc(NC(=O)OCCOCCOCCOCCOCCOCCOC)c3C2=O)ccc1OC`, the IC50 in test [6] and in test [7] was 3 nM throughout. As for `COc1ccc(-c2nc(C(=O)NCc3coc4ccccc34)c([C@@H](C)N)o2)c2ccc(C(F)(F)F)nc12`, the IC50 in test [11] amounted to 0.01 nM. Usually EC50 stands for the concentration that produces a half-maximal response. For the compound `O=C(C(=O)c1cn(Cc2ccc(F)cc2)c2ccc(O)cc12)c1c(Cl)cncc1Cl`, the EC50 in test [12] is 110 nM. Besides, the IC50 against Phosphodiesterase 4 [13] was 9.7 nM. As for `Cn1nc(C(=O)NC2CCC(NC(=O)c3cc(F)cnc3Oc3cccc(-c4ccc(CCCN5CCNCC5)cc4)c3)CC2)cc1C(F)(F)F` (stereo not given), the IC50 in test [14] was 0.01 nM.

Consider `CCOc1cc(C(CS(C)(=O)=O)N2C(=O)c3csc(NC(C)=O)c3C2=O)ccc1OC` (stereo not given), for which, in [15], the IC50 amounted to 26 nM. For the compound `CCOc1cc([C@H](CS(C)(=O)=O)N2C(=O)c3cccc(NC(=O)OCCOCCOCCOCCOCCOC)c3C2=O)ccc1OC`, the IC50 in test [6] and in test [7] was 3 nM throughout.

Regarding `O=C(NC1CC1)c1cn(-c2cccc(-c3ccc([C@@H]4C[C@H]4C(=O)O)c(F)c3)c2)c2ncccc2c1=O`, the IC50 against Phosphodiesterase 4 [5] is 0.6 nM. As for `CCOc1ccc(-c2nc(-c3cccc(C(=O)O)n3)cs2)cc1OCC` [TETOMILAST], on Phosphodiesterase 4 [5], the IC50 worked out at 74 nM. In general, pIC50 refers to −log10 of the IC50, conventionally taken in molar units. A low value points to a high IC50. On Phosphodiesterase 4 [5], `COc1ccc(C2=NN(C3CCN(S(=O)(=O)c4ccccc4C)CC3)C(=O)C(C)(C)C2)cc1OC` yielded a pIC50 of 9.45. As for `O=C(Nc1c(Cl)cncc1Cl)C(=O)c1cn(Cc2ccc(F)cc2)c2ncccc12` [ELBIMILAST], the IC50 on Phosphodiesterase 4 [5] came to 3 nM. Consider `O=C(N[C@H]1CC[C@@H](C2C(=O)c3cc(F)cnc3N(C3CCSCC3)C2=O)CC1)c1cn2cc(F)ccc2n1` (stereo not given in full), for which the IC50 in test [14] is 0.126 nM. In the case of `CC1CN(C(=O)CO/N=C/c2ccc(OC(F)F)c(OC3CCCC3)c2)CC(C)O1` (stereo not given), the concentration for half-maximal inhibition (IC50) in test [16] stood at 800 nM. `CCOc1cc2c(cc1OCC)C(c1ccc(CCCN3CCN(c4ccc(Cl)cc4)CC3)cc1)=NCC(=O)N2` displayed an IC50 in test [17] of 40 nM. Regarding `O=C(O/C(=C\c1c(Cl)cncc1Cl)c1ccc(OC(F)F)c(OCC2CC2)c1)c1ccc(OC(F)F)c(OCC2CC2)c1`, the IC50 against Phosphodiesterase 4 [5] was 0.9 nM. `CCOc1cc([C@H](CS(C)(=O)=O)N2C(=O)c3cccc(NC(=O)OCCOCCOCCOC)c3C2=O)ccc1OC`: the IC50 in test [6] and in test [7] was 3 nM throughout. For `CCOc1cc([C@H](CS(C)(=O)=O)N2C(=O)c3cccc(NC(=O)OCCOCCOCCOCCOCCOCCOCCOCCOC)c3C2=O)ccc1OC`, the 50% inhibitory concentration (IC50) in test [6] and in test [7] was 3 nM in each case.
